Measurements: the NIST ThermoML archive (doi:10.1021/je030107c)

Key:
[1] = xn = mol fraction of the nth substance listed; settings: 101.3 kPa, Liquid; for viscosity: Capillary tube (Ostwald / Ubbelohde) method; for speed of sound: Linear variable-path acoustic interferometer; for mass density: Pycnometric method
[2] = refractive index (Na D-line) (dimensionless); xn = mol fraction of the nth substance listed; settings: 101.3 kPa, Liquid, Standard Abbe refractometry

C1COCCO1 [1,4-dioxane] + CCCCCC
Settings	mass density, 298.15 K [kg/m3]	mass density, 303.15 K [kg/m3]	mass density, 308.15 K [kg/m3]	refractive index, 298.15 K	refractive index, 303.15 K	refractive index, 308.15 K	speed of sound, 298.15 K [m/s]	viscosity, 298.15 K [mPa·s]	viscosity, 303.15 K [mPa·s]	viscosity, 308.15 K [mPa·s]
[1], x1 = 0.1135	682	677.3	672.5	–	–	–	1087	0.333	0.319	0.304
[1], x1 = 0.2057	706.4	701.4	696.5	–	–	–	1099	0.357	0.34	0.323
[1], x1 = 0.3099	736.2	731.2	726.1	–	–	–	1116	0.391	0.372	0.353
[1], x1 = 0.4032	765.7	760.5	755.3	–	–	–	1132	0.429	0.408	0.386
[1], x1 = 0.501	799.6	794.3	788.9	–	–	–	1154	0.482	0.455	0.429
[1], x1 = 0.6028	838.1	832.7	827.2	–	–	–	1185	0.549	0.517	0.485
[1], x1 = 0.7006	878.7	873.3	868	–	–	–	1220	0.634	0.596	0.557
[1], x1 = 0.7991	924	918.3	912.4	–	–	–	1257	0.753	0.705	0.656
[1], x1 = 0.8962	972.1	966.4	960.8	–	–	–	1303	0.912	0.849	0.787
[1], x1 = 1	1027.6	1021.9	1016.2	–	–	–	1347	1.166	1.069	0.984
[2], x1 = 0.1135	–	–	–	1.3758	1.3728	1.37	–	–	–	–
[2], x1 = 0.2057	–	–	–	1.3787	1.3756	1.3726	–	–	–	–
[2], x1 = 0.3099	–	–	–	1.3824	1.3795	1.3767	–	–	–	–
[2], x1 = 0.4032	–	–	–	1.3864	1.3838	1.3814	–	–	–	–
[2], x1 = 0.501	–	–	–	1.3906	1.3878	1.385	–	–	–	–
[2], x1 = 0.6028	–	–	–	1.3954	1.3928	1.3903	–	–	–	–
[2], x1 = 0.7006	–	–	–	1.4014	1.3986	1.3959	–	–	–	–
[2], x1 = 0.7991	–	–	–	1.4078	1.4048	1.4017	–	–	–	–
[2], x1 = 0.8962	–	–	–	1.414	1.4119	1.4098	–	–	–	–
[2], x1 = 1	–	–	–	1.4201	1.417	1.4143	–	–	–	–

C1COCCO1 [1,4-dioxane] + OCCO
Settings	mass density, 298.15 K [kg/m3]	mass density, 303.15 K [kg/m3]	mass density, 308.15 K [kg/m3]	refractive index, 298.15 K	refractive index, 303.15 K	refractive index, 308.15 K	speed of sound, 298.15 K [m/s]	viscosity, 298.15 K [mPa·s]	viscosity, 303.15 K [mPa·s]	viscosity, 308.15 K [mPa·s]
[1], x1 = 0.1031	1100.6	1096.6	1092.8	–	–	–	1620	9.007	7.262	5.518
[1], x1 = 0.2072	1090.6	1086.4	1082.4	–	–	–	1577	6.285	5.149	4.013
[1], x1 = 0.3021	1082	1077.6	1073.1	–	–	–	1537	4.654	3.849	3.044
[1], x1 = 0.4246	1071.1	1066.5	1061.7	–	–	–	1485	3.177	2.68	2.181
[1], x1 = 0.5042	1064.5	1059.7	1054.7	–	–	–	1456	2.566	2.184	1.802
[1], x1 = 0.5986	1056.8	1051.7	1046.8	–	–	–	1426	2.012	1.728	1.444
[1], x1 = 0.6914	1049.6	1044.5	1039.5	–	–	–	1400	1.663	1.447	1.229
[1], x1 = 0.7906	1042.4	1037.1	1031.8	–	–	–	1381	1.388	1.226	1.063
[1], x1 = 0.8909	1035.2	1029.9	1024.5	–	–	–	1369	1.212	1.081	0.949
[1], x1 = 1	1027.6	1021.9	1016.2	–	–	–	1347	1.166	1.069	0.984
[2], x1 = 0.1031	–	–	–	1.4294	1.4279	1.4262	–	–	–	–
[2], x1 = 0.2072	–	–	–	1.4284	1.4268	1.425	–	–	–	–
[2], x1 = 0.3021	–	–	–	1.4275	1.4256	1.4236	–	–	–	–
[2], x1 = 0.4246	–	–	–	1.426	1.424	1.4219	–	–	–	–
[2], x1 = 0.5042	–	–	–	1.4248	1.4226	1.4204	–	–	–	–
[2], x1 = 0.5986	–	–	–	1.4238	1.4216	1.4193	–	–	–	–
[2], x1 = 0.6914	–	–	–	1.423	1.4207	1.4186	–	–	–	–
[2], x1 = 0.7906	–	–	–	1.422	1.4196	1.4172	–	–	–	–
[2], x1 = 0.8909	–	–	–	1.421	1.4187	1.4163	–	–	–	–
[2], x1 = 1	–	–	–	1.4201	1.417	1.4143	–	–	–	–
